Results from ChEMBL document CHEMBL5316343, “Design, Synthesis, and Biological Evaluation of a Potent Dual EZH2-BRD4 Inhibitor for the Treatment of Some Solid Tumors” (J Med Chem, 2023).
The source made the active and inactive calls. The rule behind the calls is not given here.

Legend:
[1] = target: T1, Histone-lysine N-methyltransferase EZH2 (Homo sapiens, UniProt Q15910); test: Inhibition of EZH2 (unknown origin) by radiometric assay
Target sequence in this assay (Q15910 whole entry): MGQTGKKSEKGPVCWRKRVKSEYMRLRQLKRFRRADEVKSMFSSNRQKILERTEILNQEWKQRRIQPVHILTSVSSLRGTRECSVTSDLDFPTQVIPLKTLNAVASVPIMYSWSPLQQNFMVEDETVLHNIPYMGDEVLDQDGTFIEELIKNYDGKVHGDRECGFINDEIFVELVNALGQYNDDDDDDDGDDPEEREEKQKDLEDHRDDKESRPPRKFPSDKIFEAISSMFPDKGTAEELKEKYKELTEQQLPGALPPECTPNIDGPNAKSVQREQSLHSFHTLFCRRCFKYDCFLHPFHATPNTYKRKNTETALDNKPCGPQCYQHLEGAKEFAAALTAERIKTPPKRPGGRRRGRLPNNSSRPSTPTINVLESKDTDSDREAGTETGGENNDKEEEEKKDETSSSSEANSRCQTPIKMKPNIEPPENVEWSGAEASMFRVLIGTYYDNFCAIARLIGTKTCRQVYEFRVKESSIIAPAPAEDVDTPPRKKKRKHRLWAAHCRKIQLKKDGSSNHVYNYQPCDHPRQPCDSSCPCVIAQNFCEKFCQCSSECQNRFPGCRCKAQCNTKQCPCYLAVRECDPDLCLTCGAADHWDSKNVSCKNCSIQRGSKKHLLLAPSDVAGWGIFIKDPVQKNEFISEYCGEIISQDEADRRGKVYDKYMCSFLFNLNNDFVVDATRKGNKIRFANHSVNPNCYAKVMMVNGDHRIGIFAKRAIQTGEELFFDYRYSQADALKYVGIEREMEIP

Mus musculus = test: In vivo inhibition of EZH2 in Balb/c nude mouse xenografted with human BXPC-3 cells assessed as reduction in H3K27me3 level in tumor at 60 mg/kg, ip administered daily for 30 days by IHC analysis; assay type: functional, organism-based; conditions: time 30.0 day
MDA-MB-231 [2] = test: Induction of apoptosis in human MDA-MB-231 cells assessed as necrotic cells at 5 uM incubated for 48 hrs by Annexin V-FITC/PI staining based flow cytometric analysis (reference value: 0.63%); assay type: functional
MDA-MB-231 [3] = test: Induction of apoptosis in human MDA-MB-231 cells assessed as necrotic cells at 2.5 uM incubated for 48 hrs by Annexin V-FITC/PI staining based flow cytometric analysis (reference value: 0.63%); assay type: functional
BXPC-3 [4] = test: Induction of apoptosis in human BXPC-3 cells assessed as viable cells at 5 uM incubated for 48 hrs by Annexin V-FITC/PI staining based flow cytometric analysis (reference value: 90.70%); assay type: functional; conditions: read-out: Activity
BXPC-3 [5] = test: Induction of cell cycle arrest in human BXPC-3 cells assessed as accumulation of cells at G0/G1 phase at 1 to 5 uM incubated for 48 hrs by flow cytometric analysis; assay type: functional, cell-based; conditions: dose 1-5 µM
[6] = MRT(0 to infinity) in ICR mouse at 60 mg/kg, ip measured upto 24 hrs by LC-MS/MS analysis; assay type: ADME, organism-based; conditions: in vivo
BXPC-3 [7] = test: Induction of apoptosis in human BXPC-3 cells assessed as early apoptotic cells at 1 uM incubated for 48 hrs by Annexin V-FITC/PI staining based flow cytometric analysis (reference value: 3.28 %); assay type: functional
MDA-MB-231 [8] = test: Induction of apoptosis in human MDA-MB-231 cells assessed as early apoptotic cells at 1 uM incubated for 48 hrs by Annexin V-FITC/PI staining based flow cytometric analysis (reference value: 0.69%); assay type: functional
A549 = test: Antiproliferative activity against human A549 cells assessed as inhibition of cell proliferation incubated for 6 days by CCK8 assay; assay type: functional, cell-based; conditions: time 6.0 day
BXPC-3 [9] = test: Induction of apoptosis in human BXPC-3 cells assessed as necrotic cells at 2.5 uM incubated for 48 hrs by Annexin V-FITC/PI staining based flow cytometric analysis (reference value: 1.65 %); assay type: functional
MDA-MB-231 [10] = test: Inhibition of cell proliferation in human MDA-MB-231 cells assessed as decrease in c-Myc mRNA level at 5 uM incubated for 48 hrs by qRT-PCR analysis; assay type: functional, cell-based
[11] = target: T1, Histone-lysine N-methyltransferase EZH2; test: Inhibition of EZH2 in human BXPC-3 cells assessed as increase in H3K27ac level at 5 uM by fluorescence based analysis; assay type: cell-based
Target sequence in this assay (Q15910 whole entry, looked up): as the sequence (Q15910 whole entry) above

BXPC-3 [12] = test: Induction of apoptosis in human BXPC-3 cells assessed as early apoptotic cells at 2.5 uM incubated for 48 hrs by Annexin V-FITC/PI staining based flow cytometric analysis (reference value: 3.28 %); assay type: functional
BXPC-3 [13] = test: Induction of apoptosis in human BXPC-3 cells assessed as necrotic cells at 5 uM incubated for 48 hrs by Annexin V-FITC/PI staining based flow cytometric analysis (reference value: 1.65 %); assay type: functional
[14] = target: Bromodomain testis-specific protein (Homo sapiens, UniProt Q58F21); test: Inhibition of BRDT-BD1 (unknown origin) by HTRF analysis
[15] = target: Bromodomain-containing protein 4 (Homo sapiens, UniProt O60885); test: Inhibition of BRD4 (unknown origin) by HTRF analysis
BXPC-3 [16] = test: Antitumor activity against human BXPC-3 cells xenografted in Balb/c nude mouse assessed as reduction in tumor growth at 30 mg/kg, ip administered daily for 30 days; assay type: functional, organism-based; conditions: time 30.0 day
[17] = target: Bromodomain-containing protein 3 (Homo sapiens, UniProt Q15059); test: Inhibition of BRD3-BD1/2 (unknown origin) by HTRF analysis
[18] = AUC(0 to t) in ICR mouse at 60 mg/kg, ip measured upto 24 hrs by LC-MS/MS analysis; assay type: ADME, organism-based; parameters: time < 24 hrs, dose 60 mg/kg, route ip; conditions: in vivo
T-24 = test: Antiproliferative activity against human T24 cells assessed as inhibition of cell proliferation incubated for 6 days by CCK8 assay; assay type: functional, cell-based; conditions: time 6.0 day
[19] = Cmax in ICR mouse at 60 mg/kg, ip measured upto 24 hrs by LC-MS/MS analysis; assay type: ADME, organism-based; parameters: time < 24 hrs, dose 60 mg/kg, route ip; conditions: in vivo
PANC-1 = test: Antiproliferative activity against human PANC-1 cells assessed as inhibition of cell proliferation incubated for 6 days by CCK8 assay; assay type: functional, cell-based; conditions: time 6.0 day
[20] = target: T1, Histone-lysine N-methyltransferase EZH2; test: Inhibition of EZH2 in human MDA-MB-231 cells assessed as decrease in H3K27me3 level at 5 uM by fluorescence based analysis; assay type: cell-based
Target sequence in this assay (Q15910 whole entry, looked up): as the sequence (Q15910 whole entry) above

MDA-MB-231 [21] = test: Antiproliferative activity against human MDA-MB-231 cells assessed as inhibition of cell proliferation incubated for 6 days by CCK8 assay; assay type: functional, cell-based; conditions: time 6.0 day
MDA-MB-231 [22] = test: Induction of apoptosis in human MDA-MB-231 cells assessed as viable cells at 2.5 uM incubated for 48 hrs by Annexin V-FITC/PI staining based flow cytometric analysis (reference value: 97.63%); assay type: functional; conditions: read-out: Activity
[23] = target: Bromodomain-containing protein 2 (Homo sapiens, UniProt P25440); test: Inhibition of BRD2-BD1/2 (unknown origin) by HTRF analysis
[24] = target: T1, Histone-lysine N-methyltransferase EZH2; test: Inhibition of EZH2 in human MDA-MB-231 cells assessed as increase in H3K27ac level at 5 uM by fluorescence based analysis; assay type: cell-based
Target sequence in this assay (Q15910 whole entry, looked up): as the sequence (Q15910 whole entry) above

BXPC-3 [25] = test: Inhibition of cell proliferation in human BXPC-3 cells assessed as decrease in c-Myc protein level at 5 uM incubated for 48 hrs by IHC analysis; assay type: functional, cell-based
[26] = AUC(0 to infinity) in ICR mouse at 60 mg/kg, ip measured upto 24 hrs by LC-MS/MS analysis; assay type: ADME, organism-based; parameters: time < 24 hrs, dose 60 mg/kg, route ip; conditions: in vivo
MDA-MB-231 [27] = test: Induction of apoptosis in human MDA-MB-231 cells assessed as late apoptotic cells at 5 uM incubated for 48 hrs by Annexin V-FITC/PI staining based flow cytometric analysis (reference value: 1.06%); assay type: functional
BXPC-3 [28] = test: Inhibition of cell proliferation in human BXPC-3 cells assessed as decrease in c-Myc mRNA level at 5 uM incubated for 48 hrs by qRT-PCR analysis; assay type: functional, cell-based

Sequence of Bromodomain-containing protein 2 (P25440 whole entry): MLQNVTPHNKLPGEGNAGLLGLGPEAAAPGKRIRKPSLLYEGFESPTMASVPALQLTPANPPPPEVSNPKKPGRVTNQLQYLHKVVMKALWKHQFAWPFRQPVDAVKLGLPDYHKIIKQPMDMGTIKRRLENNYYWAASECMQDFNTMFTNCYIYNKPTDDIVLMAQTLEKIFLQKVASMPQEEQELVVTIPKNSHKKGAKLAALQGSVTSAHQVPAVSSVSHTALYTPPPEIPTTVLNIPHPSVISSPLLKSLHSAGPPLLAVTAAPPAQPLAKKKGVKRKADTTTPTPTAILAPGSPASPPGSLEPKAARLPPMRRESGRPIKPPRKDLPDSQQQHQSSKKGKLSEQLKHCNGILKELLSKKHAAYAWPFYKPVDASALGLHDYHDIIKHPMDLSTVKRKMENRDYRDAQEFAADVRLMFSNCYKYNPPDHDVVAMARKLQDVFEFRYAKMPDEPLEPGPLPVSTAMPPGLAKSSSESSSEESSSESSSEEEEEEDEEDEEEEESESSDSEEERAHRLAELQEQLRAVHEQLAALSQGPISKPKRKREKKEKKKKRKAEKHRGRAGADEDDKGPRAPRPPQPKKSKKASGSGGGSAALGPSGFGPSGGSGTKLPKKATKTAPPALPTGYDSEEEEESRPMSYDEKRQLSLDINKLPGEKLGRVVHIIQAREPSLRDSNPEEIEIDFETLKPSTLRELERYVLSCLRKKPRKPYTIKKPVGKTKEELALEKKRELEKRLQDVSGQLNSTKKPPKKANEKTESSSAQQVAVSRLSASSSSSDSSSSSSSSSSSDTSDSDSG
Sequence of Bromodomain-containing protein 3 (Q15059 whole entry): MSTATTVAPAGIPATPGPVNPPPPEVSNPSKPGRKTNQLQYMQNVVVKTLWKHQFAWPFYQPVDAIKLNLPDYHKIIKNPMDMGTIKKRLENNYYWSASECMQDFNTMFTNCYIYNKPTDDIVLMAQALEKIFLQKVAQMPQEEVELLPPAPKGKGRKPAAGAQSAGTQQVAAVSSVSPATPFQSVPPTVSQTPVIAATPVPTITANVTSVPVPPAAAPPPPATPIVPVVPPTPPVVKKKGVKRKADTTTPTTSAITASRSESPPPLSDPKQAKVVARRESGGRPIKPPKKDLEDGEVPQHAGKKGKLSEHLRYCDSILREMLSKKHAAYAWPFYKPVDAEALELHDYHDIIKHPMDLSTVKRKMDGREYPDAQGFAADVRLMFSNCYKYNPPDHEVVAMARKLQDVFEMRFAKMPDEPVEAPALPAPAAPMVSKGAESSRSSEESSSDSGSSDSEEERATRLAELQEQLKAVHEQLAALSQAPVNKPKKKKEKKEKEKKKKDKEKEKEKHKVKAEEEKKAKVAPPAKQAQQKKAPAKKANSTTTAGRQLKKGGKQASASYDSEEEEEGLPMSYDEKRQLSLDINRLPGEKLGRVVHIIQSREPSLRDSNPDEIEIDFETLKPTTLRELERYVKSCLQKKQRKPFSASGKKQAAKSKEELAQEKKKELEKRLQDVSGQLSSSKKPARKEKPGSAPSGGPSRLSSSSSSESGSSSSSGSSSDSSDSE

- IC50 [1]: 2.3 nM
- MRT inf [6]: 6.94 h
- inhibition [11]: Active
- IC50 [14]: 35 nM
- IC50 [15]: 147 nM
- IC50 [17]: 32 nM
- AUC(0-t) at 24 h [18]: 1820 ng·h/mL
- Cmax [19]: 2960 ng/mL
- inhibition [20]: Active
- IC50 [23]: 31 nM
- inhibition [24]: Active
- AUC(0-inf) [26]: 2000 ng·h/mL
Structure (SMILES): CCC(C)n1ccc2c(C(=O)NCc3c(C)cc(C)[nH]c3=O)cc(-c3cn(C)c(=O)c4[nH]ccc34)cc21 (configuration not stated)
- inhibition (Mus musculus): Active
- Activity (MDA-MB-231 [2]): 1.91%
- Activity (MDA-MB-231 [3]): 1.38%
- viability at 5 µM (BXPC-3 [4]): 62.1%
- Activity (BXPC-3 [5]): Active
- Activity (BXPC-3 [7]): 6.84%
- Activity (MDA-MB-231 [8]): 2.87%
- Activity (A549): Active
- Activity (BXPC-3 [9]): 2.86%
- inhibition (MDA-MB-231 [10]): Active
- Activity (BXPC-3 [12]): 9.2%
- Activity (BXPC-3 [13]): 3.35%
- Activity (BXPC-3 [16]): inactive
- Activity (T-24): Active
- Activity (PANC-1): Active
- Activity (MDA-MB-231 [21]): Active
- viability at 2.5 µM (MDA-MB-231 [22]): 87.8%
- inhibition (BXPC-3 [25]): Active
- Activity (MDA-MB-231 [27]): 3.82%
- inhibition (BXPC-3 [28]): Active
